From ChEMBL document CHEMBL4270481, “ALK5 kinase inhibitory activity and synthesis of 2,3,4-substituted 5,5-dimethyl-5,6-dihydro-4H-pyrrolo[1,2-b]pyrazoles” (Eur J Med Chem, 2017)

How the values were obtained:
[1] = target: T1, TGF-beta receptor type-1 (Homo sapiens, UniProt P36897); assay: Inhibition of human ALK5 expressed in Sf9 insect cells using casein as substrate in presence of [gamma-33P]ATP; format: cell-based
T1 sequence (P36897 whole entry): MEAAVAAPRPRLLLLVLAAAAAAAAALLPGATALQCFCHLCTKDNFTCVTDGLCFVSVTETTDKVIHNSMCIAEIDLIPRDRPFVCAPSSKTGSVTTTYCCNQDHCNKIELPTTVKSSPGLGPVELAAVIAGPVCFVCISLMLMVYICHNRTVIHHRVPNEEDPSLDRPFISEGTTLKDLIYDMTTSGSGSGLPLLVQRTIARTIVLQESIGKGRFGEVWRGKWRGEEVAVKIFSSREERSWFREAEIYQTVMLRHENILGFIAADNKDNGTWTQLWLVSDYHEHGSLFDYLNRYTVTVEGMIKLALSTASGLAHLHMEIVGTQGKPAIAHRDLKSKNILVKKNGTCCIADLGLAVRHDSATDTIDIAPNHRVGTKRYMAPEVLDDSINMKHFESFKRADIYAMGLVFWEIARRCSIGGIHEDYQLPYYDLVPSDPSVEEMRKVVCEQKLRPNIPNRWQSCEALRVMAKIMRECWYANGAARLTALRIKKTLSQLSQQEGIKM

[2] = target: Cyclin-dependent kinase 2/cyclin E1 (Homo sapiens, UniProt P24941); assay: Inhibition of human CDK2/cyclin E expressed in Sf9 insect cells using histone H1 as substrate in presence of [gamma-33P]ATP; format: cell-based
[3] = system: K562; assay: Cytotoxicity against human K562 cells assessed as decrease in cell proliferation after 72 hrs by calcein AM staining-based assay; format: functional; conditions: K562, 72 h
[4] = system: BJ; assay: Cytotoxicity against human BJ cells assessed as decrease in cell proliferation up to 100 uM after 72 hrs by calcein AM staining-based assay
[5] = target: T2, TGF-beta receptor type-1 (Homo sapiens) (UniProt P36897); assay: Inhibition of ALK5 in serum starved human HeLa cells assessed as reduction in TGF-beta-induced SMAD2 S465/467 phosphorylation pre-incubated for 30 mins before TGF-beta stimulation for 30 mins by immunoblotting analysis; format: cell-based
T2 sequence (whole entry): T1 sequence (P36897 whole entry)

[6] = target: Receptor-interacting serine/threonine-protein kinase 2 (Homo sapiens) (UniProt O43353); assay: Inhibition of RIPK2 (unknown origin) assessed as residual enzyme activity at 1 uM relative to untreated control
[7] = target: Casein kinase 2 (Homo sapiens) (UniProt P67870+P68400+P19784+Q8NEV1); assay: Inhibition of CK2 (unknown origin) assessed as residual enzyme activity at 1 uM relative to untreated control; format: protein assay
[8] = target: Glycogen synthase kinase-3 beta (Homo sapiens) (UniProt P49841); assay: Inhibition of GSK3beta (unknown origin) assessed as residual enzyme activity at 1 uM relative to untreated control
[9] = species: Homo sapiens; assay: Inhibition of PKA (unknown origin) assessed as residual enzyme activity at 1 uM relative to untreated control
[10] = target: Ribosomal protein S6 kinase alpha-1 (Homo sapiens) (UniProt Q15418); assay: Inhibition of RSK1 (unknown origin) assessed as residual enzyme activity at 1 uM relative to untreated control
Ribosomal protein S6 kinase alpha-1 (Homo sapiens), sequence (Q15418 whole entry): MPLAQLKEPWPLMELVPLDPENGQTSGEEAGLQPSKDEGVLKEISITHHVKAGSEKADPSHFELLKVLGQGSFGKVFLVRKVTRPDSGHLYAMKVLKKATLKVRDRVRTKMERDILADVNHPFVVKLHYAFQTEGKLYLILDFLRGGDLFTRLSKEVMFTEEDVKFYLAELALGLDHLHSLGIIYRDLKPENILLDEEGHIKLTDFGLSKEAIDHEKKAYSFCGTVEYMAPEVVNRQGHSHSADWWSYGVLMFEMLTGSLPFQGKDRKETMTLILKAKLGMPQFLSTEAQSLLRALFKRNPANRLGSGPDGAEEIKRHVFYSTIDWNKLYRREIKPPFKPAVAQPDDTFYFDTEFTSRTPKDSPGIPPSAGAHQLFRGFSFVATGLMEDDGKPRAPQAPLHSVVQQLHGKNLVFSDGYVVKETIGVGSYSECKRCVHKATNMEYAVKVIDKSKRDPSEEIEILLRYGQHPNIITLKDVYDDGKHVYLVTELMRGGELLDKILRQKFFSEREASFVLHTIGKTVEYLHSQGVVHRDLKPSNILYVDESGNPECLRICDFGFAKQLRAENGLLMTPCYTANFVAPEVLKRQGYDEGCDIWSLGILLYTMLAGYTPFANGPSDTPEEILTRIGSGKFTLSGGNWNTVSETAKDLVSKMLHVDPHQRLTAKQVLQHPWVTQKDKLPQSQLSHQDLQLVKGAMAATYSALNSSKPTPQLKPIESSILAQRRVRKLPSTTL

[11] = target: Vascular endothelial growth factor receptor (Homo sapiens) (UniProt P17948+P35916+P35968); assay: Inhibition of VEGFR (unknown origin) assessed as residual enzyme activity at 1 uM relative to untreated control; format: protein assay
[12] = target: Aurora kinase B (Homo sapiens) (UniProt Q96GD4); assay: Inhibition of Aurora B (unknown origin) assessed as residual enzyme activity at 1 uM relative to untreated control
[13] = target: Calcium/calmodulin-dependent protein kinase kinase 2 (Homo sapiens) (UniProt Q96RR4); assay: Inhibition of CAMKKbeta (unknown origin) assessed as residual enzyme activity at 1 uM relative to untreated control
[14] = target: Ephrin type-A receptor 2 (Homo sapiens) (UniProt P29317); assay: Inhibition of EPHA2 (unknown origin) assessed as residual enzyme activity at 1 uM relative to untreated control
[15] = target: Receptor tyrosine-protein kinase erbB-4 (Homo sapiens) (UniProt Q15303); assay: Inhibition of HER4 (unknown origin) assessed as residual enzyme activity at 1 uM relative to untreated control
[16] = target: Serine/threonine-protein kinase Chk2 (Homo sapiens) (UniProt O96017); assay: Inhibition of CHK2 (unknown origin) assessed as residual enzyme activity at 1 uM relative to untreated control
[17] = target: Tyrosine-protein kinase JAK2 (Homo sapiens) (UniProt O60674); assay: Inhibition of JAK2 (unknown origin) assessed as residual enzyme activity at 1 uM relative to untreated control
[18] = target: Serine/threonine-protein kinase STK11 (Homo sapiens) (UniProt Q15831); assay: Inhibition of LKB1 (unknown origin) assessed as residual enzyme activity at 1 uM relative to untreated control
Serine/threonine-protein kinase STK11 (Homo sapiens), sequence (Q15831 whole entry): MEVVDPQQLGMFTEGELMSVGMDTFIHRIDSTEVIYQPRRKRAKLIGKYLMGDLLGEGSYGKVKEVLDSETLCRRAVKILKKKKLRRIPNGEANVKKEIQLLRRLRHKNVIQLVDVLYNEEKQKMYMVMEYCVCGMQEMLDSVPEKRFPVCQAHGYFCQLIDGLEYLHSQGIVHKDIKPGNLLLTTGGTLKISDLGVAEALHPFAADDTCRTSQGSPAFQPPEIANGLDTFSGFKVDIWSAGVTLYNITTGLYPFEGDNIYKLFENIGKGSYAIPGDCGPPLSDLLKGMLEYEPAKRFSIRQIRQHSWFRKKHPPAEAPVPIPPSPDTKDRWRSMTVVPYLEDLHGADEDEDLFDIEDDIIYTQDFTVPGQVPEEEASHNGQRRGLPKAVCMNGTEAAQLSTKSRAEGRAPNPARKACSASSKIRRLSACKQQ

[19] = target: MAP/microtubule affinity-regulating kinase 3 (Homo sapiens) (UniProt P27448); assay: Inhibition of MARK3 (unknown origin) assessed as residual enzyme activity at 1 uM relative to untreated control
[20] = target: Dual specificity mitogen-activated protein kinase kinase 1 (Homo sapiens) (UniProt Q02750); assay: Inhibition of MKK1 (unknown origin) assessed as residual enzyme activity at 1 uM relative to untreated control
[21] = target: Ribosomal protein S6 kinase alpha-5 (Homo sapiens) (UniProt O75582); assay: Inhibition of MSK1 (unknown origin) assessed as residual enzyme activity at 1 uM relative to untreated control
[22] = target: Serine/threonine-protein kinase Nek6 (Homo sapiens) (UniProt Q9HC98); assay: Inhibition of NEK6 (unknown origin) assessed as residual enzyme activity at 1 uM relative to untreated control
[23] = target: Serine/threonine-protein kinase PAK 4 (Homo sapiens) (UniProt O96013); assay: Inhibition of PAK4 (unknown origin) assessed as residual enzyme activity at 1 uM relative to untreated control
[24] = target: Serine/threonine-protein kinase pim-1 (Homo sapiens) (UniProt P11309); assay: Inhibition of PIM1 (unknown origin) assessed as residual enzyme activity at 1 uM relative to untreated control
[25] = target: Myosin light chain kinase, smooth muscle (Homo sapiens) (UniProt Q15746); assay: Inhibition of SmMLCK (unknown origin) assessed as residual enzyme activity at 1 uM relative to untreated control
Myosin light chain kinase, smooth muscle (Homo sapiens), sequence (Q15746 whole entry): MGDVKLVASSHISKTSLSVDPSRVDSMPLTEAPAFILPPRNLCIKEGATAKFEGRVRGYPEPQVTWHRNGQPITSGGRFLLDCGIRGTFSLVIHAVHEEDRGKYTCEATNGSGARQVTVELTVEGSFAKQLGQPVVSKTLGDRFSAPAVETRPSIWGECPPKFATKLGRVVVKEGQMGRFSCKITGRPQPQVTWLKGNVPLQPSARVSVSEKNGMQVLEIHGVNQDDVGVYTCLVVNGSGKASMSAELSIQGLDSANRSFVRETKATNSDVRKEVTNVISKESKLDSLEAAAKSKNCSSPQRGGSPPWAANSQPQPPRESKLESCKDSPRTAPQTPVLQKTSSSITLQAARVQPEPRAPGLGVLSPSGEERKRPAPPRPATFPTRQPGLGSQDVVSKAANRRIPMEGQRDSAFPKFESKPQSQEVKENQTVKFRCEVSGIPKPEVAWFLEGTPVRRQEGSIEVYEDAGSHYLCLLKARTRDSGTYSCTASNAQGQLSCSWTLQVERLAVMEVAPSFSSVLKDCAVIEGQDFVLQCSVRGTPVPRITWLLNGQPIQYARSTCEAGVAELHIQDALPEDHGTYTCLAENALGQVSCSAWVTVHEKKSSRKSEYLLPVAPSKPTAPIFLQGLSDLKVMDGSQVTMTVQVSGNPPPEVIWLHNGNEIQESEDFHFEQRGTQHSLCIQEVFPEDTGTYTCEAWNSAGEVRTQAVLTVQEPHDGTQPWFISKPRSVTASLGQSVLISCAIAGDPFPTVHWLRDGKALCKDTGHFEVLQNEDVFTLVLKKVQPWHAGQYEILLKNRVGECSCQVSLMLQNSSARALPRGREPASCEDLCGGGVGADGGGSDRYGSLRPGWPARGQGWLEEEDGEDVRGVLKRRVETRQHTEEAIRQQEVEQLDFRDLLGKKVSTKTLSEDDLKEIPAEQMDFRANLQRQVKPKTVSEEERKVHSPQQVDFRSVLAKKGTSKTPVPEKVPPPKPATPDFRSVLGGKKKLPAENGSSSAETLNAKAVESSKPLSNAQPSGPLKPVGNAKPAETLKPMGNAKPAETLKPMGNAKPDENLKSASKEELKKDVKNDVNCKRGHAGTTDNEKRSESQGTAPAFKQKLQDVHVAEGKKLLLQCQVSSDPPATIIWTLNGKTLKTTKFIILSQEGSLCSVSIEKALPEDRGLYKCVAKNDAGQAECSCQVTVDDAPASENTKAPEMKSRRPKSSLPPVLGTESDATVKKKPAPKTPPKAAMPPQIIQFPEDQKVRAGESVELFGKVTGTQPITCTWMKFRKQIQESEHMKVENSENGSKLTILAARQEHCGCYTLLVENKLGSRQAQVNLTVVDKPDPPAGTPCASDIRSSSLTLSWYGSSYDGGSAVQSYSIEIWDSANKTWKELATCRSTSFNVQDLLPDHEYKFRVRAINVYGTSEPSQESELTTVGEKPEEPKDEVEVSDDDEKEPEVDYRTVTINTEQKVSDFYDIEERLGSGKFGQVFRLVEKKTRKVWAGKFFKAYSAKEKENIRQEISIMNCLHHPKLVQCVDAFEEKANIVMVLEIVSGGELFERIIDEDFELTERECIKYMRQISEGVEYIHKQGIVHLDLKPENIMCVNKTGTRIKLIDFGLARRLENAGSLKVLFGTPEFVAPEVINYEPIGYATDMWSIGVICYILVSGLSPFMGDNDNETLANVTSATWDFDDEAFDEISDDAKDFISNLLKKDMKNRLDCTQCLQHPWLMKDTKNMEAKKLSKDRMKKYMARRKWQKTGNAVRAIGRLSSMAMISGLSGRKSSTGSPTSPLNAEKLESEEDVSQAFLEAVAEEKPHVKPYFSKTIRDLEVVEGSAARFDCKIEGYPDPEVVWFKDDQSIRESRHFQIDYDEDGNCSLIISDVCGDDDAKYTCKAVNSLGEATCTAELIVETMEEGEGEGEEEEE

[26] = target: SRSF protein kinase 1 (Homo sapiens) (UniProt Q96SB4); assay: Inhibition of SRPK1 (unknown origin) assessed as residual enzyme activity at 1 uM relative to untreated control
SRSF protein kinase 1 (Homo sapiens), sequence (Q96SB4 whole entry): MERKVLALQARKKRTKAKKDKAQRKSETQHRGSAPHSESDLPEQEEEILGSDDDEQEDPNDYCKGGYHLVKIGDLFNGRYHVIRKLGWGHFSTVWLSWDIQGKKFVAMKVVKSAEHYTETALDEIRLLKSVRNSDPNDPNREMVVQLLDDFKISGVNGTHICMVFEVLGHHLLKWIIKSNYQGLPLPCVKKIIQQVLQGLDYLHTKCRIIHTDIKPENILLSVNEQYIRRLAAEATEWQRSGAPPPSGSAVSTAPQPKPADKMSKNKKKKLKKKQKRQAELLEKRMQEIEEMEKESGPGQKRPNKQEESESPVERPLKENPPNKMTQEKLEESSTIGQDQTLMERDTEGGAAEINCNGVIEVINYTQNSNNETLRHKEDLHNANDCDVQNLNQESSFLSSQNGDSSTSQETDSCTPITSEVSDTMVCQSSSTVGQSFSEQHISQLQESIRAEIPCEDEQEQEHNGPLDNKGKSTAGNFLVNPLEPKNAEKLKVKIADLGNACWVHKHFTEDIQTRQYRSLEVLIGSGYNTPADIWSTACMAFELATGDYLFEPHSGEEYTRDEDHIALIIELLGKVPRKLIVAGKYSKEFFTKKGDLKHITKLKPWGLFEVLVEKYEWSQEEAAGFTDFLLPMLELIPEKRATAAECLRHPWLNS

[27] = target: Tyrosine-protein kinase SYK (Homo sapiens) (UniProt P43405); assay: Inhibition of SYK (unknown origin) assessed as residual enzyme activity at 1 uM relative to untreated control
[28] = target: Mitogen-activated protein kinase kinase kinase 7 (Homo sapiens) (UniProt O43318); assay: Inhibition of TAK1 (unknown origin) assessed as residual enzyme activity at 1 uM relative to untreated control
Mitogen-activated protein kinase kinase kinase 7 (Homo sapiens), sequence (O43318 whole entry): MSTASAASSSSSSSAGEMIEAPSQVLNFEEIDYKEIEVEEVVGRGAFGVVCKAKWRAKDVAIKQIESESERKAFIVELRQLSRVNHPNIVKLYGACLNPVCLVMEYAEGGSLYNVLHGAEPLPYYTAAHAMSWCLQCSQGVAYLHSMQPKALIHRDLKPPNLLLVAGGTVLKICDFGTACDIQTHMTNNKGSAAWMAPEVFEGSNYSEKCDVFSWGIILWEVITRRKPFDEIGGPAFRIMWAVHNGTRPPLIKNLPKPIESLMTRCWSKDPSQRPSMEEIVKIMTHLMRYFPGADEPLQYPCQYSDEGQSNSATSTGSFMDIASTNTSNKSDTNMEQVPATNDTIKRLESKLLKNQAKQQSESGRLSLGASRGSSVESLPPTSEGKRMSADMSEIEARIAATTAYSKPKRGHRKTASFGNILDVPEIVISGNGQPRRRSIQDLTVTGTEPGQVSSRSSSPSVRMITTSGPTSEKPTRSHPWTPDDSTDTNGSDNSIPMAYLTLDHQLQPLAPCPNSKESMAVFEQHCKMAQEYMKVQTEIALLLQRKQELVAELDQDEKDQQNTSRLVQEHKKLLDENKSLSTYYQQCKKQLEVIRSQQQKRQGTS

[29] = target: Serine/threonine-protein kinase TBK1 (Homo sapiens) (UniProt Q9UHD2); assay: Inhibition of TBK1 (unknown origin) assessed as residual enzyme activity at 1 uM relative to untreated control
Serine/threonine-protein kinase TBK1 (Homo sapiens), sequence (Q9UHD2 whole entry): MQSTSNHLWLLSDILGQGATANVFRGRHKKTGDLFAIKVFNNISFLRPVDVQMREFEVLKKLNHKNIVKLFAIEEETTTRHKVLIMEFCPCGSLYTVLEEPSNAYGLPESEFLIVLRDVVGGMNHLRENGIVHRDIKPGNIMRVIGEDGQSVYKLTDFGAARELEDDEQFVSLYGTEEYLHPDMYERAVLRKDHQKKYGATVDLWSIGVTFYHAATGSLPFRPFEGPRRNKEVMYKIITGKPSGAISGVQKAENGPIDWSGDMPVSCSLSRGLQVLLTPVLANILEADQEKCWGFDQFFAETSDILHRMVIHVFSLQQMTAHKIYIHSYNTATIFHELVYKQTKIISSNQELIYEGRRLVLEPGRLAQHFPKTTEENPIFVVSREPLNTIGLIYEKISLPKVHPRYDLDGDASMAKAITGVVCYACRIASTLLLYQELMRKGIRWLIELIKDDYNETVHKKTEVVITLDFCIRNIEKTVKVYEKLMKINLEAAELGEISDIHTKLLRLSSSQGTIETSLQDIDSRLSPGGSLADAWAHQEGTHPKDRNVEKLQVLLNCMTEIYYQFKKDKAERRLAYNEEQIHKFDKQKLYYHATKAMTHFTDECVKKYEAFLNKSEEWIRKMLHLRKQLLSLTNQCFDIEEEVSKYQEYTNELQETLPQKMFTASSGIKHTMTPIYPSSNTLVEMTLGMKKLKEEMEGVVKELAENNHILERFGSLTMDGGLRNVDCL

IC50 [1]: 0.08 µM | IC50 [2]: > 100 µM | inhibition [5]: Dose-dependent effect | Activity [6]: 11% | Activity [7]: 60 to 80% | Activity [8]: 60 to 80% | Activity [9]: 60 to 80% | Activity [10]: 60 to 80% | Activity [11]: 60 to 80% | Activity [12]: > 80% | Activity [13]: > 80% | Activity [14]: > 80% | Activity [15]: > 80% | Activity [16]: > 80% | Activity [17]: > 80% | Activity [18]: > 80% | Activity [19]: > 80% | Activity [20]: > 80% | Activity [21]: > 80% | Activity [22]: > 80% | Activity [23]: > 80% | Activity [24]: > 80% | Activity [25]: > 80% | Activity [26]: > 80% | Activity [27]: > 80% | Activity [28]: > 80% | Activity [29]: > 80%
Structure (SMILES): Cc1cccc(-c2nn3c(c2-c2ccc(O)cc2)C(C)C(C)(C)C3)n1 (centres undefined)
IC50 [3]: > 100 µM | Activity [4]: Non-Toxic
